Consider 51 compounds from patent US20220324865A1 (Bayer Aktiengesellschaft, priority 2018, published 2022).

The target of the test is T1, human EP3 receptor (Homo sapiens, UniProt P43115).
T1 construct: expressed in transfected cells; host or cells: CHO K1 (Chinese Hamster Ovary), stably co-transfected with Galpha16 and mitochondrial clytin
T1 sequence (P43115 1-390): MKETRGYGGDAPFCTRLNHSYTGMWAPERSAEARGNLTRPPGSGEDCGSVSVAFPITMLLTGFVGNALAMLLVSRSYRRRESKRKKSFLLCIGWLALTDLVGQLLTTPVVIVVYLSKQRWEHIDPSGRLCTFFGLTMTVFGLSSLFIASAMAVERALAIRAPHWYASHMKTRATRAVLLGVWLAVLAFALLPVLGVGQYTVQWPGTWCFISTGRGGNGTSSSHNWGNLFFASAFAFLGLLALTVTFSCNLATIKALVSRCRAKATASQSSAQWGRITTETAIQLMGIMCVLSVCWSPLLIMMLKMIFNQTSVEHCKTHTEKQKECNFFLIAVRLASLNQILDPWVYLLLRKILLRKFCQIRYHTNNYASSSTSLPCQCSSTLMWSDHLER
Description: Cellular in vitro assay for determining EP3 receptor activity (human EP3 cell line, sulprostone-stimulated calcium luminescence). Type of test: cell-based. The note with it: CHO cells expressing human EP3 and mitochondrial Clytin; antagonist mode, sulprostone at EC50; read-out: EP3 CHO mtCLY ANTAG IC50. Summed up: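 Antagonist activity was measured as inhibition of the luminescent calcium signal elicited by EC50 sulprostone, following 10 min compound pretreatment. The cell line was recombinant CHO K1 co-expressing human EP3, Gα16 and the photoprotein Clytin, reconstituted with coelenterazine.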
With `COCc1c(C(=O)N[C@@H](c2ccc(F)cc2)C(F)(F)CO)nn2cc(-c3ccc(Cl)c(C)c3)[nH]c(=O)c12` [6-621], the IC50 was found to be 1.15 nM. For the compound `COCc1c(C(=O)N[C@@H](C)C2CC2)nn2cc(-c3ccc(Cl)c(C)c3)[nH]c(=O)c12` [6-622], the IC50 amounted to 1.25 nM. Under `COCc1c(C(=O)N[C@@H](c2ccc(F)cc2)C(C)(C)O)nn2cc(-c3ccc(Cl)c(C)c3)[nH]c(=O)c12` [6-623] stands 3.15 nM. In the case of `COCc1c(C(=O)N[C@@H](c2ccc(F)cc2)C(F)(F)CO)nn2cc(-c3ccc(Cl)c(F)c3)[nH]c(=O)c12` [6-624] it was 6.7 nM. Under `COCc1c(C(=O)N[C@@H](c2ccc(F)cc2)C(C)(C)O)nn2cc(-c3ccc(Cl)c(F)c3)[nH]c(=O)c12` [6-625] stands 9.95 nM; under `COCc1c(C(=O)N[C@@H](c2ccc(F)cc2)C(F)(F)CO)nn2cc(-c3ccc(C)c(Cl)c3)[nH]c(=O)c12` [6-626], 1.02 nM; under `COCc1c(C(=O)N[C@@H](c2ccc(F)cc2)C(C)(C)O)nn2cc(-c3ccc(C)c(Cl)c3)[nH]c(=O)c12` [6-627], 0.58 nM. On to `COCc1c(C(=O)NC2(c3ccc(F)cc3)CN(C)C2)nn2cc(-c3ccc4c(c3)OCCO4)[nH]c(=O)c12` [6-628], for which the half-maximal inhibitory concentration (IC50) turned out to be 6.65 nM. In the case of `O=C(N[C@@H](c1ccc(F)cc1)C(F)(F)CO)c1nn2cc(-c3ccc(Cl)c(F)c3)[nH]c(=O)c2c1C(F)F` [6-631] it was 8.55 nM; in that of `CC(C)(O)[C@@H](NC(=O)c1nn2cc(-c3ccc(Cl)c(F)c3)[nH]c(=O)c2c1C(F)F)c1ccc(F)cc1` [6-632], 6.3 nM; in that of `Cc1ccc(-c2cn3nc(C(=O)N[C@@H](c4ccc(F)cc4)C(C)(C)O)c(CC(F)(F)F)c3c(=O)[nH]2)cc1F` [6-633], 3.5 nM. In the case of `Cc1ccc(-c2cn3nc(C(=O)N[C@@H](c4ccc(F)cc4)C(C)(C)O)c(C)c3c(=O)[nH]2)nc1C` [6-634] it was 3.7 nM; in that of `O=C(N[C@H](CCO)c1ccc(F)cc1)c1cc2c(=O)[nH]c(-c3ccc(Cl)c(Cl)c3)cn2n1` [6-635], 4.05 nM; in that of `CC(C)(O)[C@@H](NC(=O)c1cc2c(=O)[nH]c(-c3ccc(Cl)c(Cl)c3)cn2n1)c1ccc(F)cc1` [6-636], 7.63 nM. For the compound `Cc1ccc(-c2cn3nc(C(=O)N[C@H](CN4CC[C@@H](F)C4)c4ccccc4)cc3c(=O)[nH]2)cc1F` [6-637], the half-maximal inhibitory concentration (IC50) was found to be 3.6 nM. For the compound `Cc1ccc(-c2cn3nc(C(=O)N[C@H](CCO)c4ccc(F)cc4)cc3c(=O)[nH]2)cc1F` [6-638], the concentration for half-maximal inhibition (IC50) came out at 1.36 nM. Under `Cc1ccc(-c2cn3nc(C(=O)N[C@@H](c4ccccc4)C(C)(C)O)cc3c(=O)[nH]2)cc1F` [6-640] stands 9.4 nM.

On to `Cc1ccc(-c2cn3nc(C(=O)N[C@H](CN4CC[C@H](F)C4)c4ccccc4)cc3c(=O)[nH]2)cc1F` [6-643], for which the IC50 amounted to 1.95 nM.

Take `Cc1ccc(-c2cn3nc(C(=O)N[C@@H](c4ccc(F)cc4)C(C)(C)O)cc3c(=O)[nH]2)cc1F` [6-644]: the IC50 stood at 6.55 nM. Under `Cc1ccc(-c2cn3nc(C(=O)N[C@@H](c4ccc(F)cc4)C(F)(F)CO)cc3c(=O)[nH]2)cc1F` [6-645] stands 6 nM; under `Cc1ccc(-c2cn3nc(C(=O)N[C@@H](c4ccc(F)cc4)C(C)(C)O)cc3c(=O)[nH]2)c(F)c1C` [6-646], 5.4 nM. `Cc1cc(-c2cn3nc(C(=O)N[C@@H](c4ccc(F)cc4)C(F)(F)CO)c(C(F)(F)F)c3c(=O)[nH]2)ccc1F` [6-647]: the half-inhibitory concentration (IC50) is 3.03 nM.

Turning to `Cc1cc(-c2cn3nc(C(=O)N[C@@H](c4ccc(F)cc4)C(C)(C)O)c(C(F)(F)F)c3c(=O)[nH]2)ccc1F` [6-648], the IC50 amounted to 2.77 nM. In the case of `CC(C)(O)[C@@H](NC(=O)c1nn2cc(-c3ccc(Cl)c(F)c3)[nH]c(=O)c2c1C(F)(F)F)c1ccc(F)cc1` [6-649] it was 9.97 nM; in that of `Cc1cc(-c2cn3nc(C(=O)NCC(O)(C(F)(F)F)C(F)(F)F)c(C4CC4)c3c(=O)[nH]2)ccc1F` [6-658], 7 nM; in that of `Cn1cnc2cc(-c3cn4nc(C(=O)N[C@@H](c5ccc(F)cc5)C(C)(C)O)c(C(F)(F)F)c4c(=O)[nH]3)ccc21` [6-659], 8.55 nM.

As to `C[C@@H](NC(=O)c1cc2c(=O)[nH]c(-c3ccc4c(c3)ncn4C)cn2n1)c1ccc(F)cc1` [6-660], the IC50 worked out at 3 nM. In the case of `Cc1ccc(-c2cn3nc(C(=O)NCCN(C)C4CC4)c(C4CC4)c3c(=O)[nH]2)cc1C` [6-661] it was 1.43 nM.

For the compound `Cc1ccc(-c2[nH]c(=O)c3c(C4CC4)c(C(=O)N[C@@H](c4ccc(F)cc4)C(F)(F)CO)nn3c2F)cc1Cl` [6-662], the half-inhibitory concentration (IC50) was determined as 6.1 nM. Regarding `Cc1ccc(-c2[nH]c(=O)c3c(C4CC4)c(C(=O)N[C@H](C)c4ccc(F)cc4)nn3c2F)cc1Cl` [6-663], the IC50 amounted to 3.85 nM. In the case of `Cc1ccc(-c2[nH]c(=O)c3c(C4CC4)c(C(=O)N[C@@H](c4ccc(F)cc4)C(C)(C)O)nn3c2F)cc1Cl` [6-664] it was 5.25 nM. Under `CN1CC(NC(=O)c2nn3cc(-c4ccc(Cl)c(C(F)F)c4)[nH]c(=O)c3c2C2CC2)(c2ccc(F)cc2)C1` [6-665] stands 3.1 nM. For the compound `CC(C)(O)[C@@H](NC(=O)c1nn2cc(-c3ccc(Cl)c(C(F)F)c3)[nH]c(=O)c2c1C1CC1)c1ccc(F)cc1` [6-666], the 50% inhibitory concentration (IC50) came to 1.4 nM. In the case of `O=C(N[C@H](CCO)c1ccc(F)cc1)c1nn2cc(-c3ccc(Cl)c(C(F)F)c3)[nH]c(=O)c2c1C1CC1` [6-668], the 50% inhibitory concentration (IC50) amounted to 1.09 nM. In the case of `CC(C)c1c(C(=O)N[C@H](CCO)c2ccc(F)cc2)nn2cc(-c3ccc(Cl)cc3)[nH]c(=O)c12` [6-670] it was 2 nM; in that of `CC(C)c1c(C(=O)N[C@@H](c2ccc(F)cc2)C(C)(C)O)nn2cc(-c3ccc(Cl)cc3)[nH]c(=O)c12` [6-672], 1.7 nM. Under `CN1CC(NC(=O)c2nn3cc(-c4ccc(Cl)cc4)[nH]c(=O)c3c2C2CC2)(c2ccc(F)cc2)C1` [6-673] stands 3.3 nM; under `O=C(N[C@H](CCO)c1ccc(F)cc1)c1nn2cc(-c3ccc(Cl)cc3)[nH]c(=O)c2c1C1CC1` [6-674], 0.79 nM. In the case of `O=C(N[C@@H](c1ccc(F)cc1)C(F)(F)CO)c1nn2cc(-c3ccc(Cl)cc3)[nH]c(=O)c2c1C1CC1` [6-675] it was 1.5 nM; in that of `CC(C)(O)[C@@H](NC(=O)c1nn2cc(-c3ccc(Cl)cc3)[nH]c(=O)c2c1C1CC1)c1ccc(F)cc1` [6-676], 3.55 nM. For the compound `CC(C)(O)[C@@H](NC(=O)c1nn2cc(-c3cccc(Cl)c3)[nH]c(=O)c2c1C1CC1)c1ccc(F)cc1` [6-677], the IC50 is 0.45 nM. Under `O=C(N[C@@H](c1ccc(F)cc1)C(F)(F)CO)c1nn2cc(-c3cccc(Cl)c3)[nH]c(=O)c2c1C1CC1` [6-678] stands 5.2 nM. In the case of `O=C(N[C@H](CCO)c1ccc(F)cc1)c1nn2cc(-c3cccc(Cl)c3)[nH]c(=O)c2c1C1CC1` [6-679] it was 1.09 nM; in that of `CC(C)c1c(C(=O)N[C@H](CCO)c2ccc(F)cc2)nn2cc(-c3cccc(Cl)c3)[nH]c(=O)c12` [6-682], 1.09 nM.

Take `CC(C)c1c(C(=O)N[C@@H](c2ccc(F)cc2)C(C)(C)O)nn2cc(-c3cccc(Cl)c3)[nH]c(=O)c12` [6-683]: the concentration for half-maximal inhibition (IC50) turned out to be 1.06 nM. Under `CC(C)c1c(C(=O)NC2(c3ccc(F)cc3)CN(C)C2)nn2cc(-c3cccc(Cl)c3)[nH]c(=O)c12` [6-684] stands 3.35 nM. In the case of `C[C@@H](NC(=O)c1cc2c(=O)[nH]c(-c3ccc4ccccc4c3)cn2n1)c1ccc(C(F)(F)F)cc1` [Example 1-1, 6-(Naphthalen-2-yl)-4-oxo-N-{(1R)-1-[4-(trifluoromethyl)phenyl]ethyl}-4,5-dihydropyrazolo[1,5-a]-pyrazine-2-carboxamide] it was 1.6 nM. Under `COC[C@H](NC(=O)c1cc2c(=O)[nH]c(-c3ccc4ccccc4c3)cn2n1)c1ccccc1` [Example 1-2, N-[(1R)-2-Methoxy-1-phenylethyl]-6-(naphthalen-2-yl)-4-oxo-4,5-dihydropyrazolo[1,5-a]pyrazine-2-carboxamide] stands 2.5 nM; under `CC(C)(O)[C@@H](NC(=O)c1cc2c(=O)[nH]c(-c3ccc4ccccc4c3)cn2n1)c1ccccc1` [Example 1-3, N-[(1S)-2-Hydroxy-2-methyl-1-phenylpropyl]-6-(naphthalen-2-yl)-4-oxo-4,5-dihydropyrazolo-[1,5-a]pyrazine-2-carboxamide], 0.653 nM; under `CCC1(NC(=O)c2cc3c(=O)[nH]c(-c4ccc5ccccc5c4)cn3n2)CN(C(=O)OC(C)(C)C)C1` [Example 1-5, tert.-Butyl 3-ethyl-3-({[6-(naphthalen-2-yl)-4-oxo-4,5-dihydropyrazolo[1,5-a]pyrazin-2-yl]carbonyl}-amino)azetidine-1-carboxylate], 2.7 nM. Take `COc1ccc(C2(NC(=O)c3cc4c(=O)[nH]c(-c5ccc6ccccc6c5)cn4n3)CN(C(=O)OC(C)(C)C)C2)cn1` [Example 1-6, tert.-Butyl 3-(6-methoxypyridin-3-yl)-3-({[6-(naphthalen-2-yl)-4-oxo-4,5-dihydropyrazolo[1,5-a]-pyrazin-2-yl]carbonyl}amino)azetidine-1-carboxylate]: the IC50 was 1.28 nM.

One may read the IC50 as the concentration needed to halve the response being measured.
